Earlier results, collected in patent US20100056547A1, “OPHTHALMIC COMPOSITIONS COMPRISING dDC” (ALLERGAN, INC., priority 2005, published 2010).

Tests used:
adenoviral strains = settings: for inhibition of adenoviral strains: Kaneko et al., J. Jpn. Ophthalmol. Soc. 107:196-201 (2003)
viral conjunctivitis = settings: topical ophthalmic administration; Gordon et al., Cornea 15(5): 546, 1996

SMILES	inhibition of adenoviral strains (adenoviral strains)	EC50 values (ranking among NMSO3, HPMPC, dDC) (adenoviral strains; adenoviral strains, Kaneko et al. 2003)	effectiveness in treating viral conjunctivitis (viral conjunctivitis)
Nc1ccn(C[C@@H](CO)OCP(=O)(O)O)c(=O)n1 [HPMPC]	inhibited adenoviral strains		
CCCCCCCCCCCCCCCCCCCCCCOCC(C)(COCCCCCCCCCCCCCCCCCCCCCC)CO[C@]1(C(=O)O)C[C@H](OS(=O)(=O)O)[C@@H](NC(C)=O)[C@H]([C@H](OS(=O)(=O)O)[C@@H](COS(=O)(=O)O)OS(=O)(=O)O)O1 [NMSO3]	inhibited adenoviral strains	lowest	
Nc1ccn(C[C@@H](CO)OCP(=O)(O)O)c(=O)n1 [cidofavir]			effective
Nc1ccn([C@H]2CC[C@@H](CO)O2)c(=O)n1 [dDC, 2′,3′-Dideoxycytidine]	inhibited adenoviral strains		
